# ChEMBL document CHEMBL1201862, “PubChem BioAssay data set” (2004)
# The source made the active and inactive calls.
# What was measured:
# [1] = biological target: T1, Leucine aminopeptidase (Plasmodium falciparum 3D7, UniProt Q8IL11); experiment: P. falciparum M17LAP inhibitors, primary screen, biochemical, fluorogenic H-Leu-NHMec substrate, 1536-well (AID 1619); type: functional
# T1 sequence (Q8IL11 whole entry): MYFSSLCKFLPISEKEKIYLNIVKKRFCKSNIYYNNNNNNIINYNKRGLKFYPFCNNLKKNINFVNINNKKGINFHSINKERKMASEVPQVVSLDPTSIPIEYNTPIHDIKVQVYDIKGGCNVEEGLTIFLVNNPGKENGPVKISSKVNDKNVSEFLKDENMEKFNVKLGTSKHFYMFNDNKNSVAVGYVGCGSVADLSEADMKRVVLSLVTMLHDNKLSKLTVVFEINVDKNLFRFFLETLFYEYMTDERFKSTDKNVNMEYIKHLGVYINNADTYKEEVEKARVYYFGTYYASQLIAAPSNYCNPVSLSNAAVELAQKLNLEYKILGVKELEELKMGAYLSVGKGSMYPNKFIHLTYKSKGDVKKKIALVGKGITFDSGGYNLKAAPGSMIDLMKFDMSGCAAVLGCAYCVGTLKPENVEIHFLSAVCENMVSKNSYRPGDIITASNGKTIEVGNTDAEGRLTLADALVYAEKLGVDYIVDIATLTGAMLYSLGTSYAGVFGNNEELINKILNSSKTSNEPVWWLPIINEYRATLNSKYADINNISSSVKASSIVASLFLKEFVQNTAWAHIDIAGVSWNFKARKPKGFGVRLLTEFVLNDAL
# [2] = biological target: T2, Alkaline phosphatase, tissue-nonspecific isozyme (Homo sapiens, UniProt P05186); experiment: human TNAP enzyme inhibitors, SAR follow-up, biochemical, luminescent, dose response (AID 1056)
# T2 sequence (P05186 whole entry): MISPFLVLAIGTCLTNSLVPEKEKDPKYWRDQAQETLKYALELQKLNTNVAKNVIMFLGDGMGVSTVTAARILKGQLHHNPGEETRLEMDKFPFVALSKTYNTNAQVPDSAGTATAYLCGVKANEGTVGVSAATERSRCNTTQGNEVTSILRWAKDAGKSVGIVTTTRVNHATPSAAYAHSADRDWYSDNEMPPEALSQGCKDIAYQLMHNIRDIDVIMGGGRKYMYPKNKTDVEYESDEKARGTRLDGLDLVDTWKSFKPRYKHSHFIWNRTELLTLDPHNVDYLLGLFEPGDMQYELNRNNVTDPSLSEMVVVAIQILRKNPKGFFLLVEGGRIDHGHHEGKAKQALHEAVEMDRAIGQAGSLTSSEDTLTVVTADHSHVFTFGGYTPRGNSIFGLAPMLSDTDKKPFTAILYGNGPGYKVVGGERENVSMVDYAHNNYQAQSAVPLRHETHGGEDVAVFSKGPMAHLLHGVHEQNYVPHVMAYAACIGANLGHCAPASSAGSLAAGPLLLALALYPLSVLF
# [3] = biological target: Alkaline phosphatase, placental type (Homo sapiens, UniProt P05187); experiment: PLAP enzyme inhibitors, confirmation, biochemical, luminescence (AID 1512); type: functional
# [4] = biological target: Signal transducer and activator of transcription 1-alpha/beta (Homo sapiens, UniProt P42224); experiment: STAT3 inhibitors, late-stage profile, late-stage follow-up, cell-based, STAT1 panel, qPCR, cytotoxicity, panel member STAT1 Inhibition (AID 2078)
# [5] = biological target: Signal transducer and activator of transcription 3 (Homo sapiens, UniProt P40763); experiment: STAT3 inhibitors, late-stage profile, late-stage follow-up, cell-based, STAT1 panel, qPCR, cytotoxicity, panel member STAT3 Inhibition (AID 2078)
# [6] = biological target: T3, Tyrosine-protein phosphatase non-receptor type 7 (Homo sapiens, UniProt P35236); experiment: SAR analysis of chemical inhibitors of HePTP using a Fluorescent assay - Set 2. [Related pubchem assays (depositor defined):AID1059, AID1077, AID1661, AID2085, AID521]; type: functional
# T3 sequence (P35236 whole entry): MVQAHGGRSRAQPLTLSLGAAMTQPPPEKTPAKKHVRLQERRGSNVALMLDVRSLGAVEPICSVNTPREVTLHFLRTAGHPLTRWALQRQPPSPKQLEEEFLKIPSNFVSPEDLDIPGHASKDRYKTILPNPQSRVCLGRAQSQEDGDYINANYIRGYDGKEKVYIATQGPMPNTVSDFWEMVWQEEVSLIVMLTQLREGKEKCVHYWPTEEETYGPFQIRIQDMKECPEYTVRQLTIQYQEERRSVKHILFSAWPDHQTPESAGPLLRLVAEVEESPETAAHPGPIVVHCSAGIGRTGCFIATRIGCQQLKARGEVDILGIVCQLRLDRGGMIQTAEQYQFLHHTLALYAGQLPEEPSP
# [7] = test system: Streptococcus; experiment: Group A Streptococcus viability loss, dose response, counter-screen for streptokinase expression inhibitor project, luminescence, BacTiterGlo (AID 1915); type: functional, organism-based;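 note: potency for reduction of bacterial viability or growth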
# [8] = test system: Streptococcus sp. 'group A'; experiment: growth inhibition of control SK(-) GAS strain, dose response, counter-screen for streptokinase expression inhibitor project, luminescence, kanamycin, BacTiterGlo, confirmation (AID 1900); type: functional, organism-based
# [9] = biological target: T4, Kappa-type opioid receptor (Homo sapiens, UniProt P41145); experiment: KOR agonist analogs, imaging readout, SAR follow-up, image-based (AID 2359); type: functional
# [10] = biological target: T4, Kappa-type opioid receptor; type: functional
# [11] = biological target: T5, Streptokinase A (Streptococcus pyogenes serotype M1, UniProt P10520); experiment: S. pyogenes streptokinase expression inhibitors, potency, dose response, plasminogen activation absorbance, OD405 (AID 1914); type: functional, Streptococcus pyogenes M1 GAS;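 note: secreted streptokinase activity via plasminogen activation per viability signal from cell pellet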
# T5 sequence (P10520 whole entry): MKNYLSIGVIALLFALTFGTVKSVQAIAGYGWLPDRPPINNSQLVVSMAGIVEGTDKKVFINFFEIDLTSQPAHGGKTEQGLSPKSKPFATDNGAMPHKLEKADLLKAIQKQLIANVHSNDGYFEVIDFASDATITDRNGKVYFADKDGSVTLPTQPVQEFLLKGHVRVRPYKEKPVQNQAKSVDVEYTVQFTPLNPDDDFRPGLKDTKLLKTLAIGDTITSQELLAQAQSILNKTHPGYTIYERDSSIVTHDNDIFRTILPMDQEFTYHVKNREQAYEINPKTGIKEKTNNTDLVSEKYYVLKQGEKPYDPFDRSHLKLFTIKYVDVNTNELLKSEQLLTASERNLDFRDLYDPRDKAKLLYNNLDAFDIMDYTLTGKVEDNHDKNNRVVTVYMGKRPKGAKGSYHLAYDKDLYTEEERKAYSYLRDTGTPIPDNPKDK
# [12] = biological target: T6, Mu-type opioid receptor (Homo sapiens, UniProt P35372); experiment: MOR antagonists, SAR follow-up, image-based (AID 2420); type: functional;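 note: compounds added before stimulation of receptor with agonist DAMGO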
# [13] = biological target: T7, Delta-type opioid receptor (Homo sapiens, UniProt P41143); experiment: DOR agonists, SAR follow-up, image-based (AID 2370); type: functional
# [14] = biological target: T6, Mu-type opioid receptor; experiment: MOR agonists by imaging, SAR follow-up, image-based (AID 2352); type: functional
# [15] = biological target: Beta-galactosidase (Escherichia coli, UniProt Q8VNN2); type: functional
# [16] = biological target: T4, Kappa-type opioid receptor; experiment: kappa opioid receptor blockers, cell-based, luminescence, beta-arrestin, SAR follow-up (AID 2285); type: functional
# [17] = biological target: Dual specificity protein phosphatase 3 (Homo sapiens, UniProt P51452); experiment: SAR VHR1 Fluorescent Assay for In Vitro dose response studies Set 2. [Related pubchem assays (depositor defined):AID1654, AID1661, AID1878]; type: functional
# [18] = biological target: T4, Kappa-type opioid receptor; experiment: KOR antagonists by imaging, SAR follow-up, image-based (AID 2348); type: functional
# [19] = biological target: T7, Delta-type opioid receptor; experiment: DOR antagonists, SAR follow-up, image-based (AID 2357); type: functional
# [20] = biological target: T4, Kappa-type opioid receptor; type: functional; remark: listed apart in the source
# [21] = biological target: T8, Hexokinase HKDC1 (Homo sapiens, UniProt Q2TB90); experiment: HKDC1 hexokinase activators, dose response, biochemical, W721R variant (AID 504730); type: functional
# T8 sequence (Q2TB90 whole entry): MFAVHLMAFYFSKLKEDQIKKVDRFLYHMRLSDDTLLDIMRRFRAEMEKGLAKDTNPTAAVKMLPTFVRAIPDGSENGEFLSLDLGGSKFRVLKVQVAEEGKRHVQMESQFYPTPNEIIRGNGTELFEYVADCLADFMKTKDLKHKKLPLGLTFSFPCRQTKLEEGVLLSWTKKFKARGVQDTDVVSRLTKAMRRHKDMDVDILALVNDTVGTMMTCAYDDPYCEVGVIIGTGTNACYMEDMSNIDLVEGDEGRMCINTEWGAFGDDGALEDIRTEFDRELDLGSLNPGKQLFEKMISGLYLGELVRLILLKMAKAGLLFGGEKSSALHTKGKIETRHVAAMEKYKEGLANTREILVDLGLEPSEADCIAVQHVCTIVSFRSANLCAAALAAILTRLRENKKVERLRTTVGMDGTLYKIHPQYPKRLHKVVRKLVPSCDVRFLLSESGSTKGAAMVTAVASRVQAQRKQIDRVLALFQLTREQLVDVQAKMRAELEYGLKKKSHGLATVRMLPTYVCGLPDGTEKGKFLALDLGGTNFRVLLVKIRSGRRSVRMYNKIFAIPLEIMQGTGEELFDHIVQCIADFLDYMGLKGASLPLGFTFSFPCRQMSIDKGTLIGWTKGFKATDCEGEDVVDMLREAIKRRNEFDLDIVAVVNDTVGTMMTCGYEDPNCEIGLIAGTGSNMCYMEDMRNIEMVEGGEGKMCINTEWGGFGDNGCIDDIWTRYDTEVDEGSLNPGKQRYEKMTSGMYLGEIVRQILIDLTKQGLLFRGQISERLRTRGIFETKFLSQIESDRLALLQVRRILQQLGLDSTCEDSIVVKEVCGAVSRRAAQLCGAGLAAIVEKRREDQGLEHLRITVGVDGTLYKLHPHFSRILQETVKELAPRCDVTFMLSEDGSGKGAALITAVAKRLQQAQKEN
# [22] = control 3'UTR Renilla luciferase suppression, dose response, counter-screen for Shn3 inhibitor project, cell-based, Clone20-Shn3RL, cherry-picked (AID 624133); type: functional
# [23] = HepG2 cell cytotoxicity, dose response, cytotoxicity control for Shn3 inhibitor project, CellTiter-Glo, cherry-picked (AID 624134); type: functional, cell-based
# [24] = test system: INS1; experiment: beta cell apoptosis inhibitors, cytokine rescue, dose response, luminescence, retest (AID 449756); type: functional, cell-based; details: Rattus norvegicus;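 note: cell death triggered by IL-1 beta plus TNF-alpha plus IFN-gamma mixture; protective hits raise ATP signal compared with cytokine alone wells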
# [25] = biological target: T9, Hexokinase-1 (Homo sapiens, UniProt P19367); experiment: hexokinase 1 activators, dose response, selectivity assay for HKDC1 activator project, biochemical (AID 504762); type: functional
# T9 sequence (P19367 whole entry): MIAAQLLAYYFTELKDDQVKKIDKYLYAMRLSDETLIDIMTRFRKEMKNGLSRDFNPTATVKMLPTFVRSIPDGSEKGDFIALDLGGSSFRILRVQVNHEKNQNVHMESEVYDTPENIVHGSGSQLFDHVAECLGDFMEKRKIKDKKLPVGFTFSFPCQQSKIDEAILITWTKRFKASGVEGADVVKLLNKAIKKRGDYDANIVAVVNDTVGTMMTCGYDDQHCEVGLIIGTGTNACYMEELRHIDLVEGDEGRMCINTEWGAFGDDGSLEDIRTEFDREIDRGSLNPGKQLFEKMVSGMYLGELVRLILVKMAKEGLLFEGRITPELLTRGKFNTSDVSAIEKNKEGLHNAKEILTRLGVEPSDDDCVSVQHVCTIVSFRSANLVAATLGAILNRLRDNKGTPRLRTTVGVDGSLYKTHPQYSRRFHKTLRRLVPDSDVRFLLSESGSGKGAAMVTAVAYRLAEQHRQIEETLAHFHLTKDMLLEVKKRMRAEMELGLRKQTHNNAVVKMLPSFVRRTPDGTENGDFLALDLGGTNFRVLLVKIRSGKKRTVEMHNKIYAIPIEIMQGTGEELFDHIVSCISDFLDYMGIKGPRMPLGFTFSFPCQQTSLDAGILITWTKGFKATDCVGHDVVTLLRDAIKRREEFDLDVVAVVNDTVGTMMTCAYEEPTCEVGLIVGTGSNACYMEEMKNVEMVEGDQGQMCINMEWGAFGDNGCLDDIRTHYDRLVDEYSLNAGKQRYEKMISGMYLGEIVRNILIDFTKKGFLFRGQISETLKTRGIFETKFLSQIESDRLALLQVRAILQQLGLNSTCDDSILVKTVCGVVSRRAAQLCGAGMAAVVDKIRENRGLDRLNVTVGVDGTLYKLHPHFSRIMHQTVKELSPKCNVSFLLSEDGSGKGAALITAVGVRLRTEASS
# T4 sequence (P41145 whole entry): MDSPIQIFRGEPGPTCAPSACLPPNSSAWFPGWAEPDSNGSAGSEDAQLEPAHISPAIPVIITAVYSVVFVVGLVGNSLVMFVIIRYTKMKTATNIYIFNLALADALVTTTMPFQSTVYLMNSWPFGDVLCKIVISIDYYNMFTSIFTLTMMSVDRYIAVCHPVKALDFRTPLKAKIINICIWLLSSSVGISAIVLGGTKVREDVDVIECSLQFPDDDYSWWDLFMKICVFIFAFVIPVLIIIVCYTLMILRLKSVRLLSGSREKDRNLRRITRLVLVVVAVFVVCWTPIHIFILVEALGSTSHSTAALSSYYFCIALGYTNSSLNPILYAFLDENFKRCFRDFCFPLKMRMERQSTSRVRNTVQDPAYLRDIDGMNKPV
# T7 sequence (P41143 whole entry): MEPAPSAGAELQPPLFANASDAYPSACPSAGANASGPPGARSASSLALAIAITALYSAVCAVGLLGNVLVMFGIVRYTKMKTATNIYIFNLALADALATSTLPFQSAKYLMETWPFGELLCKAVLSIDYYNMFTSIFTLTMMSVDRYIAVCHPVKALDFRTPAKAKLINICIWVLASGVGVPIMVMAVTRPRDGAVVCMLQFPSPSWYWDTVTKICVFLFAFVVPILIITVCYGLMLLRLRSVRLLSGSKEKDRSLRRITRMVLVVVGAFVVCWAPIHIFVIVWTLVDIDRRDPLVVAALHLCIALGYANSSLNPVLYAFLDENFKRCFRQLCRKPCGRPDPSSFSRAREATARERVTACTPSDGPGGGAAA
# T6 sequence (P35372 whole entry): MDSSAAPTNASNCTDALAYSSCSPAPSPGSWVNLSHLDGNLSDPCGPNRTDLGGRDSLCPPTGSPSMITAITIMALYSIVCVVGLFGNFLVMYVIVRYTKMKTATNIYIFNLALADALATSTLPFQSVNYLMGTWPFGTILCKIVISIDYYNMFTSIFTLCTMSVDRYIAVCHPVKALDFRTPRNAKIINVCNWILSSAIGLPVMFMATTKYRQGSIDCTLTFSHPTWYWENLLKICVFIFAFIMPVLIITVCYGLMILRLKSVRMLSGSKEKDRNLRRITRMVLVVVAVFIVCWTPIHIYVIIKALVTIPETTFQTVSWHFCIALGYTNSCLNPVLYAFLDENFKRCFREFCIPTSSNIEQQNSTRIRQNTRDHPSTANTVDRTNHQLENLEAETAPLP
# Sequence of Signal transducer and activator of transcription 1-alpha/beta (P42224 whole entry): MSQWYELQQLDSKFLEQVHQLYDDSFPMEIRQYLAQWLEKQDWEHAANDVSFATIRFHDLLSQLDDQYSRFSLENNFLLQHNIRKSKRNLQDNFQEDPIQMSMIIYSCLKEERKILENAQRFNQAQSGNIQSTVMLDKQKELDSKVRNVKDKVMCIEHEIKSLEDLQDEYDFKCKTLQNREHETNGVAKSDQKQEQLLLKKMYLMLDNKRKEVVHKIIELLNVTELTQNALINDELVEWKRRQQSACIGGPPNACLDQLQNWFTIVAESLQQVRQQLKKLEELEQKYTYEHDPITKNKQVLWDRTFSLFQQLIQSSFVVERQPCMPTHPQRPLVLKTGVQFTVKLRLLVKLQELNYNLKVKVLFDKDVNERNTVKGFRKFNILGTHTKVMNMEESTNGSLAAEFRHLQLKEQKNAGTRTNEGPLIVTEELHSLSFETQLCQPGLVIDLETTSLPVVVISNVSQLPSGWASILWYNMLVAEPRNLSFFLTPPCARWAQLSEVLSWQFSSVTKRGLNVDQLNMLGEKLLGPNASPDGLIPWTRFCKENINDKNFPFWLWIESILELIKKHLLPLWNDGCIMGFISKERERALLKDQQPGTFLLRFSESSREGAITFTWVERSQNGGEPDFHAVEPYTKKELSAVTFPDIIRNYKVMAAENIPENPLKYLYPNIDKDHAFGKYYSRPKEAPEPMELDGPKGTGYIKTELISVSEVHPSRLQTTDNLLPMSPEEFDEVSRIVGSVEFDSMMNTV
# Sequence of Dual specificity protein phosphatase 3 (P51452 whole entry): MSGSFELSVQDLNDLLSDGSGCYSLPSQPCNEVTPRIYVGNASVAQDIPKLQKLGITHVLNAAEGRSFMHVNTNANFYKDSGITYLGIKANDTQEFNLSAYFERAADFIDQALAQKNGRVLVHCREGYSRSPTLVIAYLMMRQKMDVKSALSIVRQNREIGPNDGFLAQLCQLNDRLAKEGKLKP
# Sequence of Alkaline phosphatase, placental type (P05187 whole entry): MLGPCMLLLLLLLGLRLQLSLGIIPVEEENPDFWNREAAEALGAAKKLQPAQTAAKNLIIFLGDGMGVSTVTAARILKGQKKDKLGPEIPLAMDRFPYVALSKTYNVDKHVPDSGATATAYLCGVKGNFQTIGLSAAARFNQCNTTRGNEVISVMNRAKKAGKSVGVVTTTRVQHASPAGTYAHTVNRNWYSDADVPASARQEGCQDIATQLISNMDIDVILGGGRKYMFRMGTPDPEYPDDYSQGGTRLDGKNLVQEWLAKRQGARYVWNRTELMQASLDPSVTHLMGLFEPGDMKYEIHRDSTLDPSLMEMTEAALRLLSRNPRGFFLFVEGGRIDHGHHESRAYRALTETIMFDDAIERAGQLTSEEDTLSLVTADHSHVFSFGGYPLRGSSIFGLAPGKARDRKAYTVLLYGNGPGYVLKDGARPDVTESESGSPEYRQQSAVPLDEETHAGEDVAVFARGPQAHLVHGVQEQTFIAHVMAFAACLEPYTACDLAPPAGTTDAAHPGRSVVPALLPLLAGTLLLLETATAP
# Sequence of Signal transducer and activator of transcription 3 (P40763 whole entry): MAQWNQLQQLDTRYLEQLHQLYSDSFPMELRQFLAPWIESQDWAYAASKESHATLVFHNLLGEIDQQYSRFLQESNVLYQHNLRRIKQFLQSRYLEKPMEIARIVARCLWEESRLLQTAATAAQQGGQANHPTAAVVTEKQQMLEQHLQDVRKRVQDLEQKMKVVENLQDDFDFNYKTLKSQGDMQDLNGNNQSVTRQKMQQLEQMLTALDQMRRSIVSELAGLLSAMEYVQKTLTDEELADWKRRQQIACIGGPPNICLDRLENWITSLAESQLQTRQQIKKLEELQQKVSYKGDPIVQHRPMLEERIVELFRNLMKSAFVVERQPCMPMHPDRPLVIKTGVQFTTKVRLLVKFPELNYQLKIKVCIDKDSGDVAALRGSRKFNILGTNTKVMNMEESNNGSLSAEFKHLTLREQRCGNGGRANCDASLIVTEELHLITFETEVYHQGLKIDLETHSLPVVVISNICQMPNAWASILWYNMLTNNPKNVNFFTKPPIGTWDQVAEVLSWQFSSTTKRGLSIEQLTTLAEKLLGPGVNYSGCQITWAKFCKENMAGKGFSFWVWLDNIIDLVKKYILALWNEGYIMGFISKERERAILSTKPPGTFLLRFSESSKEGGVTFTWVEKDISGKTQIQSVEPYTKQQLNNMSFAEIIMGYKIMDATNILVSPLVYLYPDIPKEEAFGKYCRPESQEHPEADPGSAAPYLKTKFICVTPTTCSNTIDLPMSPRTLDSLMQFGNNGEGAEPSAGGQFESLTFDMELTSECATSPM
# Sequence of Beta-galactosidase (Q8VNN2 whole entry): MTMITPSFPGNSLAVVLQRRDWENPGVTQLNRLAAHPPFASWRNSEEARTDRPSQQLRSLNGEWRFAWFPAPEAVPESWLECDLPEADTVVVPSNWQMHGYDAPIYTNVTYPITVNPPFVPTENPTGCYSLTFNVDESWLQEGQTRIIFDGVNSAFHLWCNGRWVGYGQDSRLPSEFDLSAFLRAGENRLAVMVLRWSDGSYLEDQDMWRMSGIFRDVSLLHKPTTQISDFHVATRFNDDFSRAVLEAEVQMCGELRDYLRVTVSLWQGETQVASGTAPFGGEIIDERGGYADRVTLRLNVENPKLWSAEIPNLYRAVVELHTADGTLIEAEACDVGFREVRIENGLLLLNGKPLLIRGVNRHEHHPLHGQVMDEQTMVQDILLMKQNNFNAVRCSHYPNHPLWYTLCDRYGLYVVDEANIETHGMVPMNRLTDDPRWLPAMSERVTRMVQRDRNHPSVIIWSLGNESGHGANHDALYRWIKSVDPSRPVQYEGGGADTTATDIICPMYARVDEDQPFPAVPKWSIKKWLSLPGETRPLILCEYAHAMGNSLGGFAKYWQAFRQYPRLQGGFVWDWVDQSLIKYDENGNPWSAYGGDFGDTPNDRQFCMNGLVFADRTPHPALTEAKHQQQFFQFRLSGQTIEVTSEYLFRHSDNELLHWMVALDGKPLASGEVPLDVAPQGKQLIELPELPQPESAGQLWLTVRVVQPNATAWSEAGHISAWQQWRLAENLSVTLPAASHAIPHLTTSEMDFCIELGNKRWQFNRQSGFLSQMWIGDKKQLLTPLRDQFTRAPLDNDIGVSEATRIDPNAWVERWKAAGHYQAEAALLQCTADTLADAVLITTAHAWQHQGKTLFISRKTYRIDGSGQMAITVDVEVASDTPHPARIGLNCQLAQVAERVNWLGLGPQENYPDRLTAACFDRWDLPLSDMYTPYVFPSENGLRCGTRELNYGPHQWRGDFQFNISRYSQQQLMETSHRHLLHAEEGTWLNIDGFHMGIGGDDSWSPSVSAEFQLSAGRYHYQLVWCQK
smiles,measurement,setting,value
CCn1c(SCC(=O)c2ccc(O)c(O)c2)nnc1-c1ccccc1,IC50,[1],13.3 µM (active)
same,IC50,[2],35.8 µM (active)
same,IC50,[3],4.32 µM (active)
c1ccc(CC2CCN(c3ncnc4sc5c(c34)CCCC5)CC2)cc1,IC50,[4],> 55.7 µM (inactive)
same,IC50,[5],> 55.7 µM (inactive)
O=C(NC(NC(=S)Nc1c(Cl)cccc1Cl)C(Cl)(Cl)Cl)OCc1ccccc1 (stereo not drawn),IC50,[6],63 µM (active)
same,EC50,[7],18 µM (active)
same,EC50,[8],1.65 µM (active)
same,EC50,[9],> 32 µM (inactive)
same,IC50,[10],2.04 µM
same,EC50,[11],3.01 µM (active)
same,IC50,[12],8.43 µM (active)
same,EC50,[13],> 32 µM (inactive)
same,EC50,[14],> 32 µM (inactive)
same,EC50,[15],> 31.5 µM (inactive)
same,IC50,[16],1.15 µM (active)
same,IC50,[17],90 µM (active)
same,IC50,[18],0.74 µM (active)
same,IC50,[19],> 32 µM (inactive)
same,IC50,[20],3.48 µM (active)
Fc1ccccc1NC1=NN=C(c2ccccc2)CS1,EC50,[7],9 µM (active)
same,EC50,[21],20.2 µM (inactive)
same,AC50,[22],11.1 µM (active)
same,AC50,[23],33.5 µM (active)
same,EC50,[8],4.31 µM (active)
same,EC50,[11],> 150 µM (not active)
same,AC50,[24],7.51 µM (active)
same,EC50,[25],29.7 µM (inactive)
